# Measured values: BindingDB's records for patent WO2022081807 (THE BROAD INSTITUTE, INC., 2022)
# Molecular target: T1, Histone acetyltransferase KAT6A [507-778] (Human, UniProt Q92794)
# T1 construct: 507-778
# Assay: Kat6a Activity Assay
# T1 sequence (Q92794 whole entry): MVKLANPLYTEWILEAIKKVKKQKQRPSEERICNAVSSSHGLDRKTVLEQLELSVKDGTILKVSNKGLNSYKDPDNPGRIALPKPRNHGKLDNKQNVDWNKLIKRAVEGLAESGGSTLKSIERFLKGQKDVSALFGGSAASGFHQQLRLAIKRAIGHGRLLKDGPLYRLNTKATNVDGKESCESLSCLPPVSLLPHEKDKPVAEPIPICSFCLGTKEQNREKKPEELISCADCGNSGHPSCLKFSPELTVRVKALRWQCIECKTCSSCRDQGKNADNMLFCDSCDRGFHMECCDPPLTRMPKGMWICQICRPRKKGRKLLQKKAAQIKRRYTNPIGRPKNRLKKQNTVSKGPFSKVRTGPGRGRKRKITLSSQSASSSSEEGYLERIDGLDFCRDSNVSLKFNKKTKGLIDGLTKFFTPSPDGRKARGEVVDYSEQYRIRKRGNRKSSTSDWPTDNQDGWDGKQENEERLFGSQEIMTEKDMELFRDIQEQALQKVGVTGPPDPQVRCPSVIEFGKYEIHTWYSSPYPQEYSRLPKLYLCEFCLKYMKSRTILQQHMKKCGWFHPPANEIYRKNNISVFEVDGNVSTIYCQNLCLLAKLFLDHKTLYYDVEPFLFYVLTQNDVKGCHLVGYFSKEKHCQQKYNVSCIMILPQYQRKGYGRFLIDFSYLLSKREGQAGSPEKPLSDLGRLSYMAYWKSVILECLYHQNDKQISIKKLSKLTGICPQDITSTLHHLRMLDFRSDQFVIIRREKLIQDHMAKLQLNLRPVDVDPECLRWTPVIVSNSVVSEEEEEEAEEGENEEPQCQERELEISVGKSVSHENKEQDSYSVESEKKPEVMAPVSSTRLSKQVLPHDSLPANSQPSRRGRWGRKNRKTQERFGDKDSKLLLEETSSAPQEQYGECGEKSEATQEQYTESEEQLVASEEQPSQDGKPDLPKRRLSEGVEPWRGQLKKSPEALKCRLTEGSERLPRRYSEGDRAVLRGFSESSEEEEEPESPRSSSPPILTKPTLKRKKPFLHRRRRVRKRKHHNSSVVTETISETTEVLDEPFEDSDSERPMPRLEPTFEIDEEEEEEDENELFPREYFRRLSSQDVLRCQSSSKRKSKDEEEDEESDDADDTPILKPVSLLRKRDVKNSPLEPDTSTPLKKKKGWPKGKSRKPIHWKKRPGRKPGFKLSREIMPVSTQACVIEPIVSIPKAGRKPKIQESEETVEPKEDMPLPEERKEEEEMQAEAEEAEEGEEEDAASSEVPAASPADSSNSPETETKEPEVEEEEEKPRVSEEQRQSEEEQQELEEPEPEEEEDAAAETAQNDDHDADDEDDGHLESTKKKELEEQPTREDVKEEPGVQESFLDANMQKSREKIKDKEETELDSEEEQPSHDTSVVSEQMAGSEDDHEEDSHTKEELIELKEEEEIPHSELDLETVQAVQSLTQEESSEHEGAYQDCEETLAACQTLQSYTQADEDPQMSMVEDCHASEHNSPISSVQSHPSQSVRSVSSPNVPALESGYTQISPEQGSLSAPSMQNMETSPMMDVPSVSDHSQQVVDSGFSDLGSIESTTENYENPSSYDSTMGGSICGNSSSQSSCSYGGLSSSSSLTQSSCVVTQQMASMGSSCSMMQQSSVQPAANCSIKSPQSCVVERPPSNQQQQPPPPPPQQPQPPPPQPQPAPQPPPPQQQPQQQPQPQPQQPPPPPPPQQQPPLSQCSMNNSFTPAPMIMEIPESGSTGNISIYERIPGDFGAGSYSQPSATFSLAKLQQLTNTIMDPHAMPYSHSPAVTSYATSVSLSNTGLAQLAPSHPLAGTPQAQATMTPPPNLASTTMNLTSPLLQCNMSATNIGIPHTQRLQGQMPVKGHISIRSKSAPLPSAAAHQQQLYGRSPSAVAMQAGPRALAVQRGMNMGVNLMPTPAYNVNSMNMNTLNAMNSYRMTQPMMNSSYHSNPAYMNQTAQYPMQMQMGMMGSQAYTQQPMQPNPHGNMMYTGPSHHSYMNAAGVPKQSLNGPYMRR
row,IC50 [nM],Structure (SMILES)
1,6.06,"COc1ccc(C2=CCN(C(=O)OC(C)(C)C)CC2)cc1S(=O)(=O)NC(=O)c1cc2c(F)cc(N3CCC3)cc2o1 [WO2022081807, Example 197]"
2,23,"O=C(NS(=O)(=O)c1ccccc1OC1CC1)c1cc2c(F)cc(N3CCC3)cc2o1 [WO2022081807, Example 131]"
3,0.81,"COc1ccc(N2CCCC2c2ccccc2)cc1S(=O)(=O)NC(=O)c1cc2c(F)cc(N3CCC3)cc2o1 (stereo not drawn) [WO2022081807, Example 201]"
4,310,"Cc1ccc(S(=O)(=O)NC(=O)c2cc3c(F)cc(N4CCC4)cc3o2)c2ccncc12 [WO2022081807, Example 191]"
5,12,"COc1ccc(-c2cccc(F)c2)cc1S(=O)(=O)NC(=O)c1cc2c(F)cc(N3CCC3)cc2o1 [WO2022081807, Example 198]"
6,62,"Cc1ccc2cccc(S(=O)(=O)NC(=O)c3cc4c(F)cc(N5CCC5C)cc4o3)c2n1 (stereo not drawn) [WO2022081807, Example 221]"
7,18,"Cc1ccc(OC(C)C)c(S(=O)(=O)NC(=O)c2cc3c(F)cc(N4CCC4)cc3o2)c1 [WO2022081807, Example 134]"
8,26,"COc1ccc(C)cc1S(=O)(=O)NC(=O)c1cc2c(F)cc(N3CC(F)C3)cc2o1 [WO2022081807, Example 158]"
9,27,"CCOc1ccc(C(F)(F)F)cc1S(=O)(=O)NC(=O)c1cc2c(F)cc(N3CCC3)cc2o1 [WO2022081807, Example 209]"
10,13,"O=C(NS(=O)(=O)c1cccc2ccc(Cl)nc12)c1cc2c(F)cc(N3CC(F)C3)cc2o1 [WO2022081807, Example 154]"
11,26,"COc1cccc(N2CCOCC2)c1S(=O)(=O)NC(=O)c1cc2c(F)cc(N3CCC3)cc2o1 [WO2022081807, Example 137]"
12,28,"O=C(NS(=O)(=O)c1cccc2c1OC(F)(F)C(F)(F)O2)c1cc2c(F)cc(N3CCC3)cc2o1 [WO2022081807, Example 140]"
13,1190,"CC1(C)CCN1c1cc(F)c2cc(C(=O)NS(=O)(=O)c3ccccc3-c3ccccc3)oc2c1 [WO2022081807, Example 217]"
14,517,"CCS(=O)(=O)c1nc2ccccn2c1S(=O)(=O)NC(=O)c1cc2c(F)cc(N3CC(F)C3)cc2o1 [WO2022081807, Example 167]"
15,27,"COc1ccc(Br)cc1S(=O)(=O)NC(=O)c1cc2c(F)cc(N3CCC3)cc2o1 [WO2022081807, Example 139]"
16,11,"CCOc1ccc(CC)cc1S(=O)(=O)NC(=O)c1cc2c(F)cc(N3CC(F)C3)cc2o1 [WO2022081807, Example 153]"
17,11,"CCOc1ccccc1S(=O)(=O)NC(=O)c1cc2c(F)cc(N3CC[C@@H]3C(N)=O)cc2o1 [WO2022081807, Example 169]"
18,17,"CCOc1ccc(Br)cc1S(=O)(=O)NC(=O)c1cc2c(F)cc(N3CCC3)cc2o1 [WO2022081807, Example 135]"
19,21,"O=C(NS(=O)(=O)c1cc(Br)cc2c1OCC2)c1cc2c(F)cc(N3CCC3)cc2o1 [WO2022081807, Example 177]"
20,20,"COc1ccc(C)cc1S(=O)(=O)NC(=O)c1cc2c(F)cc(N3CCC3)cc2o1 [WO2022081807, Example 156]"

# Continued, compound first:
row,Structure (SMILES),IC50 [nM]
1,"CC(Oc1ccccc1S(=O)(=O)NC(=O)c1cc2c(F)cc(N3CCC3)cc2o1)C(F)(F)F (racemic) [WO2022081807, Example 13]",19
2,"Cc1ccc(OCC2CCCC2)c(S(=O)(=O)NC(=O)c2cc3c(F)cc(N4CCC4)cc3o2)c1 [WO2022081807, Example 9]",21
3,"CCOc1cccc(Oc2ccccc2)c1S(=O)(=O)NC(=O)c1cc2c(F)cc(N3CCC3)cc2o1 [WO2022081807, Example 7]",4.15
4,"CCc1cc(S(=O)(=O)NC(=O)c2cc3c(F)cc(N4CCC4)cc3o2)c(C)s1 [WO2022081807, Example 36]",367
5,"C[C@@H](Oc1ccccc1S(=O)(=O)NC(=O)c1cc2c(F)cc(N3CCC3)cc2o1)C(F)(F)F [WO2022081807, Example 14]",28
6,"CCOc1cccc(C(C)C)c1S(=O)(=O)NC(=O)c1cc2c(F)cc(N3CCC3)cc2o1 [WO2022081807, Example 23]",29
7,"CN(C)c1ccccc1S(=O)(=O)NC(=O)c1cc2c(F)cc(N3CCC3)cc2o1 [WO2022081807, Example 11]",7.52
8,"CC(C)c1ccc(C(C)C)c(S(=O)(=O)NC(=O)c2cc3c(F)cc(N4CCC4)cc3o2)c1 [WO2022081807, Example 30]",25
9,"COc1ccc(C(C)C)cc1S(=O)(=O)NC(=O)c1cc2c(F)cc(N3CCC3)cc2o1 [WO2022081807, Example 128]",8.15
10,"O=C(NS(=O)(=O)c1c(NCC(F)F)cccc1C(F)(F)F)c1cc2c(F)cc(N3CCC3)cc2o1 [WO2022081807, Example 92]",464
11,"CN(C(=O)Oc1ccccc1S(=O)(=O)NC(=O)c1cc2c(F)cc(N3CCC3)cc2o1)c1ccccc1 [WO2022081807, Example 62]",196
12,"O=C(NS(=O)(=O)c1cccc2c1OCC2)c1cc2c(F)cc(N3CCC3)cc2o1 [WO2022081807, Example 18]",24
13,"Cc1cccc(C(C)C)c1S(=O)(=O)NC(=O)c1cc2c(F)cc(N3CCC3)cc2o1 [WO2022081807, Example 53]",70
14,"O=C(NS(=O)(=O)c1cc(Br)ccc1OC(F)(F)F)c1cc2c(F)cc(N3CCC3)cc2o1 [WO2022081807, Example 82]",19
15,"CC(C)Oc1cccc(Br)c1S(=O)(=O)NC(=O)c1cc2c(F)cc(N3CCC3)cc2o1 [WO2022081807, Example 39]",79
16,"CCOc1ccccc1S(=O)(=O)NC(=O)c1cc2c(F)cc(N3CC(C)(F)C3)cc2o1 [WO2022081807, Example 116]",2290
17,"Cc1ccc2cccc(S(=O)(=O)NC(=O)c3cc4c(F)cc(N5CCC5)cc4o3)c2n1 [WO2022081807, Example 130]",14
18,"C[C@H](Oc1ccccc1S(=O)(=O)NC(=O)c1cc2c(F)cc(N3CCC3)cc2o1)C(F)(F)F [WO2022081807, Example 15]",47

# Molecular target: Histone acetyltransferase KAT6B (Human, UniProt Q8WYB5)
# Sequence (Q8WYB5 whole entry): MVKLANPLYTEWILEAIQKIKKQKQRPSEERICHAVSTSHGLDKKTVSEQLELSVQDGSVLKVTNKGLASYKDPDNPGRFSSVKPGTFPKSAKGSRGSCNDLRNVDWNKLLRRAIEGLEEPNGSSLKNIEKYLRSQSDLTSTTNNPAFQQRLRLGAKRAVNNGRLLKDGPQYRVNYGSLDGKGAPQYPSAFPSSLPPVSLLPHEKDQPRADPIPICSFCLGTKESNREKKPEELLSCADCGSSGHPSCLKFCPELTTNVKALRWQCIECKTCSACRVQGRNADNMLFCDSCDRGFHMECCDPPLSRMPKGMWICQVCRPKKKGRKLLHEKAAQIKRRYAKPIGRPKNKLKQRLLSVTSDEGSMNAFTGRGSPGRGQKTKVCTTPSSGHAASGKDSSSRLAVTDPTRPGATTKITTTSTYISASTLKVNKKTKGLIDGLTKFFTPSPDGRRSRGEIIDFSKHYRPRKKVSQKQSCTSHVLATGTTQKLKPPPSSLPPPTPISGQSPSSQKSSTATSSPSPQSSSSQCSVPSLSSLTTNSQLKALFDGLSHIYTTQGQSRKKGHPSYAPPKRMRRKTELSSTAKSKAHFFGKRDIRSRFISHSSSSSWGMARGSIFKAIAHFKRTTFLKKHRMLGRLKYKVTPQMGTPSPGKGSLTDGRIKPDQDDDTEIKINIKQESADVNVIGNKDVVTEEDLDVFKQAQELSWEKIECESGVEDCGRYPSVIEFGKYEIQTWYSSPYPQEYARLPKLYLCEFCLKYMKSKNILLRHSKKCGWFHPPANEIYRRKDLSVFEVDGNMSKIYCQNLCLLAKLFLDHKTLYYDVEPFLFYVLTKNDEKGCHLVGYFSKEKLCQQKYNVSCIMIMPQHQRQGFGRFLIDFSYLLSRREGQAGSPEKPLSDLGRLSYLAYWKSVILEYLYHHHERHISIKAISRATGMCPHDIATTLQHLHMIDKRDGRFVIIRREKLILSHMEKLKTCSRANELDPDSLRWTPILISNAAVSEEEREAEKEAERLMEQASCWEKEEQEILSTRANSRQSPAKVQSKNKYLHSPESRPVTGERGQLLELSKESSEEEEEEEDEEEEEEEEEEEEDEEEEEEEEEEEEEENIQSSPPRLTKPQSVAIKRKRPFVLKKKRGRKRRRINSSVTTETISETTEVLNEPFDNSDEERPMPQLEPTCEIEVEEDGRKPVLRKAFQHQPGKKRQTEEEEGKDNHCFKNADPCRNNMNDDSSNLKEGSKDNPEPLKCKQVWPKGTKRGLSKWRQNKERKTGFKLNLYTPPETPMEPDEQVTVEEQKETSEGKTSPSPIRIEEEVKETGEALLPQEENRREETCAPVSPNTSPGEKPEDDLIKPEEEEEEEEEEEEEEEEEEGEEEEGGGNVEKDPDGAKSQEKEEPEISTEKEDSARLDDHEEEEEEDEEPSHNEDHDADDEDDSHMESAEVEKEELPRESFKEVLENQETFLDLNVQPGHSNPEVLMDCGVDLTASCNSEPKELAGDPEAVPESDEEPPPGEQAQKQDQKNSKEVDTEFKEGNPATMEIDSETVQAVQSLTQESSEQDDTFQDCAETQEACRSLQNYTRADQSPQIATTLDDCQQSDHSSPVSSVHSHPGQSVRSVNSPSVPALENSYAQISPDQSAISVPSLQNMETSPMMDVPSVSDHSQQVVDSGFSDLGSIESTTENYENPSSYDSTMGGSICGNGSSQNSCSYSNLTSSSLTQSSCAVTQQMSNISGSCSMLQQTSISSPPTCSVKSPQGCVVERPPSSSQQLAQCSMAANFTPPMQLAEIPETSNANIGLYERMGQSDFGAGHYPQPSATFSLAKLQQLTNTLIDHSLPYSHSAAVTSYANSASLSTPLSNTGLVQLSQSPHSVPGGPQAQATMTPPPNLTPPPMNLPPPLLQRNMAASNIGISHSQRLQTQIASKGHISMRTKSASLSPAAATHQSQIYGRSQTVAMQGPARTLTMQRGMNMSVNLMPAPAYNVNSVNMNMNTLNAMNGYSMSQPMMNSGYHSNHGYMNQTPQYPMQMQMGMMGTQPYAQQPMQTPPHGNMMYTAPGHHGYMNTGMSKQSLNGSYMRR
# Assay: Kat6b Activity Assay
# Description: In this case 50 nl DMSO were used instead of compounds. […] IC50 values were determined by regression analysis based on a 4 parameter equation (minimum, maximum, ICM, Hill; Y = Max + (Min - Max) / (1 + (X/ICso) Hill) using the Screener Software (Genedata).
row,IC50 [nM],Structure (SMILES)
1,15,"CC(C)c1ccc(OCc2ccccc2)c(S(=O)(=O)NC(=O)c2cc3c(F)cc(N4CCC4)cc3o2)c1 [WO2022081807, Example 213]"
2,29,"CC(C)c1ccc(OCC2CC2(F)F)c(S(=O)(=O)NC(=O)c2cc3c(F)cc(N4CCC4)cc3o2)c1 (racemic) [WO2022081807, Example 231]"
3,13,"CC(C)(C)c1ccc(OC2CCC2)c(S(=O)(=O)NC(=O)c2cc3c(F)cc(N4CCC4)cc3o2)c1 [WO2022081807, Example 228]"
4,20,"Cc1ccc2cccc(S(=O)(=O)NC(=O)c3cc4c(F)cc(N5CC(F)C5)cc4o3)c2n1 [WO2022081807, Example 152]"
5,28,"CC(C)Oc1ccc(C(C)(C)C)cc1S(=O)(=O)NC(=O)c1cc2c(F)cc(N3CCC3)cc2o1 [WO2022081807, Example 229]"
6,20,"CC(C)c1ccc(OCC2CC2)c(S(=O)(=O)NC(=O)c2cc3c(F)cc(N4CCC4)cc3o2)c1 [WO2022081807, Example 214]"

# More lines, now with the values behind:
row,Structure (SMILES),IC50 [nM]
1,"COc1ccc(C(C)C)cc1S(=O)(=O)NC(=O)c1cc2c(F)cc(N3CCC3)cc2o1 [WO2022081807, Example 128]",15
2,"CC(C)c1cccnc1S(=O)(=O)NC(=O)c1cc2c(F)cc(N3CCC3)cc2o1 [WO2022081807, Example 79]",14
3,"Cc1ccc2cccc(S(=O)(=O)NC(=O)c3cc4c(F)cc(N5CCC5)cc4o3)c2n1 [WO2022081807, Example 130]",20
4,"CCOc1ccc(C(C)(C)C)cc1S(=O)(=O)NC(=O)c1cc2c(F)cc(N3CC(F)C3)cc2o1 [WO2022081807, Example 113]",12
